Active and inactive are the calls of the source.
Experiments:
[1] = target: Voltage-dependent T-type calcium channel subunit alpha-1H (Homo sapiens, UniProt O95180); test: human CACNA1H calcium influx blockade – cell-based, synthetic library set 2, HEK293 HH8, Fluo-4, SAR follow-up (AID 493023); type: functional
[2] = target: T1, Probable nicotinate-nucleotide adenylyltransferase (Staphylococcus aureus (strain N315), UniProt P65502); type: functional, Staphylococcus aureus subsp. aureus N315; conditions: read-out: IC50_Mean;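 as to IC50 Mean: confirmatory dose-response retesting of NadD inhibitor hits first found in an ultra-high-throughput screen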
Cannabinoid receptor 2 [3] = target: T2, Cannabinoid receptor 2 (Homo sapiens, UniProt P34972); test: SAR analysis of agonists of the Cannabinoid Receptor 2 using an Image-Based Assay. [Related pubchem assays (depositor defined):AID2013, AID2026]; type: functional
[4] = target: T3, G-protein coupled receptor 55 (Homo sapiens, UniProt Q9Y2T6); test: inhibition of LPI-stimulated GPR55 beta-arrestin translocation – imaging, U2OS, beta-arrestin-GFP, LPI agonist, primary screen (AID 2013); type: functional;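 also: antagonist potency measured as reduced agonist-driven arrestin aggregation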
Cannabinoid receptor 1 [5] = target: T4, Cannabinoid receptor 1 (Homo sapiens, UniProt P21554); test: SAR analysis of agonists of the Cannabinoid Receptor 1 using an Image-Based Assay - Set 2. [Related pubchem assays (depositor defined):AID2013, AID2026]; type: functional
[6] = target: T5, G-protein coupled receptor 35 (Homo sapiens, UniProt Q9HC97); test: SAR analysis of Antagonists of the GPR35 Receptor using an Image-Based Assay - Set 3. [Related pubchem assays (depositor defined):AID2013, AID2026]; type: functional
[7] = target: T6, Calpain-2 catalytic subunit (Sus scrofa, UniProt P43367); test: m-calpain protease blockers, concentration series – biochemical, fluorogenic peptide substrate, dose response (AID 1420); type: functional
T6 sequence (P43367 whole entry): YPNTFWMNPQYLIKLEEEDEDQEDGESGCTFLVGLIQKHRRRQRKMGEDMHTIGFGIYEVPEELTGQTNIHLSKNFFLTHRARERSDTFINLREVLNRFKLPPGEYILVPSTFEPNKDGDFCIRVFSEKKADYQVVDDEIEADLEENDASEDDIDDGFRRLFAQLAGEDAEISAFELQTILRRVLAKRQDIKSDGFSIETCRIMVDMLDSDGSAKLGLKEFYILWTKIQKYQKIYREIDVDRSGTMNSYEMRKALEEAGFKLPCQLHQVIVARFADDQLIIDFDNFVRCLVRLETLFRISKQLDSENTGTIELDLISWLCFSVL

[8] = target: T3, G-protein coupled receptor 55; test: blockade of LPI-induced GPR55 arrestin translocation – imaging, U2OS, beta-arrestin-GFP, LPI agonist, set 2, SAR follow-up (AID 2820); type: functional
Cannabinoid receptor 2 [9] = target: T2, Cannabinoid receptor 2; test: SAR analysis of antagonists of the Cannabinoid Receptor 2 using an Image-Based Assay. [Related pubchem assays (depositor defined):AID2013, AID2026]; type: functional
[10] = target: T1, Probable nicotinate-nucleotide adenylyltransferase; type: functional, Staphylococcus aureus subsp. aureus N315
[11] = target: T5, G-protein coupled receptor 35; test: SAR analysis of Agonists of the GPR35 Receptor using an Image-Based Assay - Set 2. [Related pubchem assays (depositor defined):AID2013, AID2026]; type: functional
Cannabinoid receptor 1 [12] = target: T4, Cannabinoid receptor 1; test: SAR analysis of antagonists of the Cannabinoid Receptor 1 using an Image-Based Assay - Set 2. [Related pubchem assays (depositor defined):AID2013, AID2026]; type: functional
[13] = Luminescence Cell-Based Dose Response HTS to Identify Activators of Luciferase Translation or Activity in H4-C Neuroglioblastoma Cells. [Related pubchem assays: 1829 (Project Summary), 1814 (Primary HTS)]; type: functional
[14] = Luminescence Cell-Based Dose Response HTS to Identify Inhibitors of 5'UTR Stem-Loop Driven Prion Protein mRNA Translation in H4 Neuroglioblastoma Cells. [Related pubchem assays: 1827 (Project Summary), 1813 (Primary HTS)]; type: functional
cells = type: functional, cell-based
[15] = Luminescence Cell-Based Dose Retest to Confirm Activators of 5'UTR Stem-Loop Driven Alpha-Synuclein mRNA Translation in H4 Neuroglioblastoma Cells. [Related pubchem assays (depositor defined):AID1813, AID1829]; type: functional
[16] = Luminescence Cell-Based Dose Response HTS to Identify Inhibitors of Luciferase Translation or Activity in H4-C Neuroglioblastoma Cells. [Related pubchem assays: 1813 (Primary HTS), 1827 (Project Summary)]; type: functional
[17] = Luminescence Cell-Based Dose Response HTS to Identify Activators of 5'UTR Stem-Loop Driven Prion Protein mRNA Translation in H4-C Neuroglioblastoma Cells. [Related pubchem assays: 1829 (Project Summary), 1814 (Primary HTS)]; type: functional
[18] = Luminescence Cell-Based Dose HTS Response to Identify Inhibitors of 5'UTR Stem-Loop Driven Prion Protein mRNA Translation in H4-C Neuroglioblastoma Cells. [Related pubchem assays (depositor defined):AID1814, AID1827]; type: functional
[19] = luciferase reporter signal suppression in cells – H4 neuroglioma cells, luminescence, dose response (AID 1990); type: functional, cell-based
[20] = luciferase reporter signal reduction – luminescence, H4-C neuroglioblastoma cells, dose response (AID 2458); type: functional, cell-based;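 also: H4 neuroglioblastoma cells stably carrying a luciferase reporter gene fusion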
[21] = alpha-synuclein stem-loop luciferase translation blockers – H4 neuroglioma cells, luminescence, confirmation (AID 1988); type: functional, cell-based
[22] = alpha-synuclein stem-loop translation blockers – luminescence, H4 neuroglioblastoma cells, dose confirmation, confirmation (AID 2454); type: functional, cell-based;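 also: H4 neuroglioblastoma cells carrying an alpha-synuclein 5'UTR luciferase reporter; potency for inhibition of the luciferase signal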
[23] = Luminescence Cell-Based Dose Confirmation HTS to Identify Inhibitors of 5'UTR Stem-Loop Driven Alpha-Synuclein mRNA Translation in H4 Neuroglioblastoma Cells. [Related pubchem assays: 1827 (Project Summary), 1813 (Primary HTS)]; type: functional
[24] = HEK-293T viability loss after treatment – luminescence, T-cell screen hits, cytotoxicity control for TCR NF-kB inhibitor project, dose response (AID 489026); type: functional, cell-based;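 also: cells exposed to compound about 14 hours before the viability readout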
[25] = toxicity toward cultured mammalian cells – cell-based, plate reader, cherry-pick samples, cytotoxicity control, dose response (AID 504397); type: functional
CAAX prenyl protease 2 = target: T7, CAAX prenyl protease 2 (Saccharomyces cerevisiae S288c, UniProt Q03530); type: biochemical
T7 sequence (Q03530 whole entry): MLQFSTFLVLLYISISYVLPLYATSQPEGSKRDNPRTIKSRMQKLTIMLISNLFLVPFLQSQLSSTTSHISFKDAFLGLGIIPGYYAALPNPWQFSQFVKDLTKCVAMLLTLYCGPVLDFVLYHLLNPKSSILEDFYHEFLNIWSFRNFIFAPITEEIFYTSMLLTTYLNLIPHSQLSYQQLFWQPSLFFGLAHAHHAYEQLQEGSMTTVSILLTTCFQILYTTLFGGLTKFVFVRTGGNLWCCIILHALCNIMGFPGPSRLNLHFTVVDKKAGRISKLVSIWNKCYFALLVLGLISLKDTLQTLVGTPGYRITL

T5 sequence (Q9HC97 whole entry): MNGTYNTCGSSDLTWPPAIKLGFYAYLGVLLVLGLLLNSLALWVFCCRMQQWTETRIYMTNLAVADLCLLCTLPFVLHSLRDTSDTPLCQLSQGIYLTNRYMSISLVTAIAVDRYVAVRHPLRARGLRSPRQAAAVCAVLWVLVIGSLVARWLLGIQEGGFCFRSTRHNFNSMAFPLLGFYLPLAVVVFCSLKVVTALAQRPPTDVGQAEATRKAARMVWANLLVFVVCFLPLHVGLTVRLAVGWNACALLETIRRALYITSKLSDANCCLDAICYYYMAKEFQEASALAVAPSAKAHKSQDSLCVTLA
T3 sequence (Q9Y2T6 whole entry): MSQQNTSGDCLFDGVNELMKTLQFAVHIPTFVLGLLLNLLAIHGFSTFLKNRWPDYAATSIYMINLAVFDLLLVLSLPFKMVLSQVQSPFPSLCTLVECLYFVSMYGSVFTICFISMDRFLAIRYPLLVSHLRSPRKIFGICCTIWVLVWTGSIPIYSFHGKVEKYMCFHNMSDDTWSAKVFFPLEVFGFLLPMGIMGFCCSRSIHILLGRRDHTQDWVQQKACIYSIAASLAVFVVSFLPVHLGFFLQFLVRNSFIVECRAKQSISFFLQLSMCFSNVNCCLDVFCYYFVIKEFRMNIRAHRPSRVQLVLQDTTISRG
T2 sequence (P34972 whole entry): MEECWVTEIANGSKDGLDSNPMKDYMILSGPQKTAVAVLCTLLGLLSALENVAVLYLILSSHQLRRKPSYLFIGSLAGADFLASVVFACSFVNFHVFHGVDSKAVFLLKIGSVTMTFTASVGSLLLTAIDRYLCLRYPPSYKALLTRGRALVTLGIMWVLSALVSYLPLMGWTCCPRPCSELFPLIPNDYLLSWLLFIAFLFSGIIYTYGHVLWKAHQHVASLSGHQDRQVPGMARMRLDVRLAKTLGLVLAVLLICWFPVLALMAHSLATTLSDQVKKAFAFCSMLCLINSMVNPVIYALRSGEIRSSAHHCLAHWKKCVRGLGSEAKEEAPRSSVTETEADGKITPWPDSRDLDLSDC
T4 sequence (P21554 whole entry): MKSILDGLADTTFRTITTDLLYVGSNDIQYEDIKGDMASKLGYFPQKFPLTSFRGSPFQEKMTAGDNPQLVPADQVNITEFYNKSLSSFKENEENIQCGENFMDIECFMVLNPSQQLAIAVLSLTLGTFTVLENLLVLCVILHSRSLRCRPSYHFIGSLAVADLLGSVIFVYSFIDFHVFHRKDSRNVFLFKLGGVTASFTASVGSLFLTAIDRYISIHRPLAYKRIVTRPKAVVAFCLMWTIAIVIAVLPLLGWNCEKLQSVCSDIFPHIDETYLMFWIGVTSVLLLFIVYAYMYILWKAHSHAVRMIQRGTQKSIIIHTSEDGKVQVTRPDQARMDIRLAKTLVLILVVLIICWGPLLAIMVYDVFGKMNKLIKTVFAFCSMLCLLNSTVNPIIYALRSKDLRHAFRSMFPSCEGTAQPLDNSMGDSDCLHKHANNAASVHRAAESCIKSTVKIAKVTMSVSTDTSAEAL
T1 sequence (P65502 whole entry): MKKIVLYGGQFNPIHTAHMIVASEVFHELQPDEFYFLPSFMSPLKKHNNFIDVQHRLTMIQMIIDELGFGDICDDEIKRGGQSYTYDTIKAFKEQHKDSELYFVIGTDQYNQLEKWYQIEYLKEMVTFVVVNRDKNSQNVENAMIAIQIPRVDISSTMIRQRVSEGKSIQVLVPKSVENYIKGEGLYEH
Chain of Voltage-dependent T-type calcium channel subunit alpha-1H (O95180 whole entry): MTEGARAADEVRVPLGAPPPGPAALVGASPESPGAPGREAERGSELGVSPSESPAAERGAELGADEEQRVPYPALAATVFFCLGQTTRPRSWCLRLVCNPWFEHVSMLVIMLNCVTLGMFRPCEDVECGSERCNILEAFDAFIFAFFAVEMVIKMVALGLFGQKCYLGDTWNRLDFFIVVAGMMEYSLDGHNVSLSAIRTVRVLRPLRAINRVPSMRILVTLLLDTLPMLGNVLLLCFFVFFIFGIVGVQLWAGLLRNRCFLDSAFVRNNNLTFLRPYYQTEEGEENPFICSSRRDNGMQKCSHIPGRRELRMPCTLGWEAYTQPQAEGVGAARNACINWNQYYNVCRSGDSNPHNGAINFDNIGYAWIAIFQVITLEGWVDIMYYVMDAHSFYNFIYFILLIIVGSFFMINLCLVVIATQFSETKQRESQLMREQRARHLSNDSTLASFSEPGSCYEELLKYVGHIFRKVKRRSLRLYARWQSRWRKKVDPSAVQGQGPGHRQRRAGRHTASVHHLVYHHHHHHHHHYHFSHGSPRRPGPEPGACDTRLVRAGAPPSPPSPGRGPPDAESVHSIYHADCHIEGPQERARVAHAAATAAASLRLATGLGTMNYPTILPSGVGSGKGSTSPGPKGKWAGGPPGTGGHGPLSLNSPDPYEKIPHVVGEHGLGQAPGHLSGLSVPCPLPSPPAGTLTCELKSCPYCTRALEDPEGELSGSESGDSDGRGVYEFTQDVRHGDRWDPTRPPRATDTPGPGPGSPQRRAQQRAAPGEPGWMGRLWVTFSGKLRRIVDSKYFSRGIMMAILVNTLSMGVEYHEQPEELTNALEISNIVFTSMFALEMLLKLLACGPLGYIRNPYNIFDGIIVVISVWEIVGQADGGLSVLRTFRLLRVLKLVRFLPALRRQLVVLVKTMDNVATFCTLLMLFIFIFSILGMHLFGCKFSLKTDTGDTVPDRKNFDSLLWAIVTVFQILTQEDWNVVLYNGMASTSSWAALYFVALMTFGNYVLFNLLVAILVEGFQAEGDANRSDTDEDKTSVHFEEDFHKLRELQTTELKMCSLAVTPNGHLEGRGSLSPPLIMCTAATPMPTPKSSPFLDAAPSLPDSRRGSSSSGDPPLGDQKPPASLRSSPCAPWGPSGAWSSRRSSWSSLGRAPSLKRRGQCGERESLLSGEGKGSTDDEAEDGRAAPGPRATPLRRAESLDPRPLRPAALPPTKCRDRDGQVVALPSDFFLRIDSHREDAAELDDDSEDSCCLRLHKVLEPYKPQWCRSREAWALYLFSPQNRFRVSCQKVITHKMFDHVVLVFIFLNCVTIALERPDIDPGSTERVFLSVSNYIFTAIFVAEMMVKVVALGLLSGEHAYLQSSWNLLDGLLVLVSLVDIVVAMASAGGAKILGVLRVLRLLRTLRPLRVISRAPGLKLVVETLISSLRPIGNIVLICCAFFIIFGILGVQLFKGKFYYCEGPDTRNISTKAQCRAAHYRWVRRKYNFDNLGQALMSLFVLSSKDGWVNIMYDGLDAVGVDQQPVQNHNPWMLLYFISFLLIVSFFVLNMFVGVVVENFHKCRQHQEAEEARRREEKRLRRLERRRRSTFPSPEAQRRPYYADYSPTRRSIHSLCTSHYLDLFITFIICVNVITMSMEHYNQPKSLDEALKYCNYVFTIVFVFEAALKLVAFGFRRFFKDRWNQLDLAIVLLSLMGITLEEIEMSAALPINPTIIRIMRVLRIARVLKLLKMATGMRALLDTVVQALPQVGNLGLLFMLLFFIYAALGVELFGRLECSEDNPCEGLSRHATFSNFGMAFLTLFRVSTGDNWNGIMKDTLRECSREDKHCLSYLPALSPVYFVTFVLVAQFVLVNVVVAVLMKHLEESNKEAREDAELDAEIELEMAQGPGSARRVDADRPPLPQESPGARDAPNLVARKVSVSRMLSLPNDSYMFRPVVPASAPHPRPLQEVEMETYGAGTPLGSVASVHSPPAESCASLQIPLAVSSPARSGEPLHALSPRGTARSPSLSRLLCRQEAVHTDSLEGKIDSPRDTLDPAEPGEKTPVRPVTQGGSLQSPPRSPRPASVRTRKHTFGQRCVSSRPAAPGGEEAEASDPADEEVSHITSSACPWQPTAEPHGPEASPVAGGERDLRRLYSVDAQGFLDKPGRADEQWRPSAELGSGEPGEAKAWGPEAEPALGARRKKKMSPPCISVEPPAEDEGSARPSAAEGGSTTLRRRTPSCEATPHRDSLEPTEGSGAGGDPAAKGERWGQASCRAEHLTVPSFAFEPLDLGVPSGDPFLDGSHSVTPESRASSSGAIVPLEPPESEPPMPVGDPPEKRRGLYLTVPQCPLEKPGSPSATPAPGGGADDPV

In the case of `CC(C)(C)CCN1CCC[C@@H](NC(=O)COc2ccccc2Cl)C1`, the EC50 [1] is reported as 10 µM (active).

With `Cc1cc(C)c2nc(-c3cccnc3)cc(C(=O)Nc3ccc(S(=O)(=O)Nc4onc(C)c4C)cc3)c2c1` the IC50 [2] was 12.5 µM (active), the EC50 (Cannabinoid receptor 2 [3]) was > 32 µM (inactive) and the IC50 [4] was 1.55 µM (active). For the same compound, the EC50 (Cannabinoid receptor 1 [5]) was > 32 µM (inactive), the IC50 [6] was > 32 µM (inactive) and the IC50 [7] was > 50 µM (not active). The IC50 [8] was 0.457 µM (active), the IC50 (Cannabinoid receptor 2 [9]) was > 32 µM (inactive) and the IC50 [10] was 3.76 µM (active). For the same compound, the EC50 [11] was > 32 µM (inactive) and the IC50 (Cannabinoid receptor 1 [12]) was > 32 µM (inactive).

For `CCOC(=O)COc1cccc2c(=O)n(CC(=O)NCc3ccc(F)cc3)ccc12`, the EC50 [13] was 1.36 µM (inconclusive), the EC50 [14] was > 120 µM (not active) and the EC50 (cells) was 2.36 µM (active). The EC50 [15] was 26.6 µM (inconclusive), the EC50 [16] was 1.36 µM (active) and the EC50 [17] was 22.4 µM (inconclusive). The EC50 [18] was 22.4 µM (active), the EC50 [19] was 12.6 µM (active) and the EC50 [20] was > 12 µM (inconclusive). The EC50 [21] was < 0.1 µM (active), the EC50 [22] was 1.51 µM (active) and the EC50 [23] was 26.6 µM (active). The IC50 [24] was > 80 µM (inactive).

With `Nc1nnnn1/N=C/c1cccc(OCc2ccccc2Cl)c1` the AC50 [25] was > 350 µM (inactive) and the AC50 (CAAX prenyl protease 2) was 2.78 µM (active).

Source: ChEMBL document CHEMBL1201862, “PubChem BioAssay data set” (2004)
